Assay results published in article PMC12000391, “Selective molecular inhibition of the HDAC6 ZnF-UBP binding domain impairs multiple myeloma cell function” (Cell Death Discovery, 2025).
Ends that are not written are not given here.

T1: HDAC6 ZnF-UBP binding domain (ZnF-UBP^WT peptide, HDAC6^1109-1215) (Homo sapiens, UniProt Q9UBN7)
T1 construct: methods b47 print 1190-1215, apparently a misprint), expressed in E. coli BL21 Star (DE3), HisTrap purified
T1 sequence (Q9UBN7 1109-1215): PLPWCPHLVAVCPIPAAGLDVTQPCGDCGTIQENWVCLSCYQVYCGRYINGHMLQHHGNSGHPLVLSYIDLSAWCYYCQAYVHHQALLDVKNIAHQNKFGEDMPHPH

T2: ubiquitin C-terminal pentapeptide RLRGG (Homo sapiens, also: FITC label, site not given here)
T2 chain: RLRGG


These molecules were tested against T1, HDAC6 ZnF-UBP binding domain (ZnF-UBP^WT peptide, HDAC6^1109-1215) (assay: fluorescence polarization displacement of FITC-RLRGG).
Excerpt: fluorescence polarization displacement of FITC-RLRGG on HDAC6 ZnF-UBP binding domain (ZnF-UBP^WT peptide, HDAC6^1109-1215)

Molecule	IC50 [µM]
Cn1c(CCC(=O)O)nc2ccccc2c1=O [1a, quinazolinone 1a]	2.7 ± 0.3
Cn1c(CCC(=O)O)nc2cc(Cl)ccc2c1=O [1e, Quinazolinone 1e]	1.9 ± 0.1
COc1ccc2nc(CCC(=O)O)n(C)c(=O)c2c1 [1c, Quinazolinone 1c]	2.1 ± 0.5
Cn1c(CCC(=O)O)nc2cc([N+](=O)[O-])ccc2c1=O [1f, Quinazolinone 1 f]	2.3 ± 0.2
Cn1c(CCC(=O)O)nc2ccc(Cl)cc2c1=O [1b, Quinazolinone 1b]	1.9 ± 0.2
Cc1ccc2c(=O)n(C)c(CCC(=O)O)nc2c1 [1g, Quinazolinone 1 g]	2.1 ± 0.1
Cc1ccc2nc(CCC(=O)O)n(C)c(=O)c2c1 [1d, Quinazolinone 1 d]	13.6 ± 1

Biological target: T2, ubiquitin C-terminal pentapeptide RLRGG
Assay: fluorescence polarization

Molecule	Kd [nM]
HDAC6 ZnF-UBP 1109-1215 (protein) PLPWCPHLVAVCPIPAAGLDVTQPCGDCGTIQENWVCLSCYQVYCGRYINGHMLQHHGNSGHPLVLSYIDLSAWCYYCQAYVHHQALLDVKNIAHQNKFGEDMPHPH	680
